From US4960908A, “Isoflavone derivatives, salts thereof, and oncostatic and immunosuppressive agents” (Yamanouchi Pharmaceutical Co., Ltd., priority 1985, dated 1990)
Values after ≈ are worked out from the molar mass of the structure shown. Structures can show the parent of a compound that is named as a salt.

How the values were obtained:
[1] = biological target: tyrosine-specific protein kinase derived from Rous sarcoma virus (src gene pp60^src) (Rous sarcoma virus (strain Schmidt-Ruppin A), UniProt P00524); assay: Inhibitory action against tyrosine-specific protein kinase activity; type: biochemical
Protocol: The inhibitory action against tyrosine-specific protein kinase activity of the compounds of this invention was measured according to the method described below using tyrosine-specific protein kinase derived from Rous sarcoma virus (src gene pp60^src).
Measurement of tyrosine-specific protein kinase activity (src gene pp60^src derived from Rous sarcoma virus) (refer to M. S. Colet, R. L. Ericson: Proceeding of the National Academy of Sciences of U.S.A., 75, 2021-2024, 1978).
3Y1 cells (fibroblasts derived from fetal rat kidney) transformed by Rous sarcome virus (RSV) were cultured, the cultured cells were collected and washed, RIPA buffer solution [containing 0.5% NP40, 0.1% sodium deoxycholate, 50 mM Tris-HCl (pH 7.2), 1 mM phenylmethylsulfonyl fluoride (PMSF) and 0.15M NaCl] was added to the collected cells, the mixture was allowed to stand at 0° C. for 30 minutes to effect solubilization, and the resulting mixture was centrifuged (100,000× g, 20 minutes). To the supernatant thus collected, was added antiserum obtained from a rabbit cancered by inoculation of RSV, the mixture was incubated at 0° C. for 30 to 60 minutes to cause pp60^src to react with antibody, and the immune complex was isolated by mixing with protein A/Sepharose-4B (Pharmacia) and washed with RIPA buffer. The total complex thus obtained (pp60^src /antibody/protein A/Sepharose-4B) was treated in a solution containing 20 mM Pipes/NaOH (pH 7.2), 5 mM MgCl2, 1 mM DTT and 10 μM [γ-^32 p]ATP (2 mCi/mMol) at 30° C. for five minutes to effect protein kinase reaction, which was terminated by addition a terminating solution containing SDS followed by boiling for three minutes. The reaction mixture was subjected to electrophoresis on 8% SDS/polyacrylamide gel and then to autoradiography, and the radioactivity of cut-out pp60^src band was measured on a liquid scintillation counter, thus quantifying the protein kinase reaction and calculating IC50 value.

RSV-3Y1 cells = assay: Inhibitory action against the growth of tumor cells (RSV-3Y1 cells); type: cell-based; conditions: Rattus norvegicus, live cells counted after 1, 2, 3 and 4 days using trypan blue, read-out: IC50, Inhibition against the growth of RSV-3Y1
Protocol: The inhibitory action of the compounds of this invention against the growth of tumor cells was examined by using cells of rats transformed by Rous sarcoma virus (RSV-3Y1 cells).
The inhibitory actions of the compounds of Examples 1 through 17 against the tyrosine-specific protein kinase activity and against the growth of RSV-3Y1 cells were measured according to the methods described earlier.

[2] = system: antibody-forming cells (ovine erythrocytes immunization); assay: Immunosuppressive action: antibody-formation inhibition (hemolytic plaques, antibody-forming cells in the spleen); type: in vivo, male ddy mouse; conditions: abdominal injection, once a day over four days, mouse
Protocol: The spleen was taken out five days after immunization, and the number of antibody-formingcells contained in it was measured as follows according to the method of Cunningham [Cunningham A. J.: Nature, 207, 1106 (1965)]. The splenetic cells were suspended in Eagle's MEM (Nissui Pharmaceutical), ovine erythrocytes and guinea-pig complement were added to this suspension, the resulting mixture was put in a Cunningham chamber (with its both ends sealed with paraffin) and incubated at 37° C. for 90 minutes, and the number of hemolytic plaques (a) (the number of antibody-forming cells) was counted.
Similarly, the number of hemolytic plaques (b) was measured with a mouse not injected with the compound of this invention (control). The antibody-formation inhibition rate was calculated according to the following equation: [formula]

[3] = reported in J.A.C.S. (page 3447, 1951); cited from earlier work
[4] = 5 mg/Kg for each administration
[5] = 25 mg/Kg for each administration

Chain of tyrosine-specific protein kinase derived from Rous sarcoma virus (src gene pp60^src) (P00524 2-526): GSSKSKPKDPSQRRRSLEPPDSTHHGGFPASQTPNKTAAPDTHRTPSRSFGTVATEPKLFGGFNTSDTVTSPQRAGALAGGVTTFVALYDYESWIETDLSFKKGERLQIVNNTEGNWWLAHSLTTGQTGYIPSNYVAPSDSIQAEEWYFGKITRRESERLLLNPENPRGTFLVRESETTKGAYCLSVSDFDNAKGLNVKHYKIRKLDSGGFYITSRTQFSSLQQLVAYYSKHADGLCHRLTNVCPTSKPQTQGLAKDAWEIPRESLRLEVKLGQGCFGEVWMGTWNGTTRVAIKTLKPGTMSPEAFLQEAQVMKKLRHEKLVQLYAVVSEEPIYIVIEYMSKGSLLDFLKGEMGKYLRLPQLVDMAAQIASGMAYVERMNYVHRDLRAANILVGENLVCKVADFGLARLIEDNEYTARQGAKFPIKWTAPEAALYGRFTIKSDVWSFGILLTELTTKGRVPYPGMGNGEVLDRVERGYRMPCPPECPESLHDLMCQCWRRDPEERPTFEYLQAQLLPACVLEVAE

Structure (SMILES) | IC50 [1] [µM] | IC50 (RSV-3Y1 cells) [µg/mL] | other results
CCOC(=O)C(=O)Oc1ccc(-c2c(C(=O)OCC)oc3cc(O)cc(O)c3c2=O)cc1 [Example 1, ethyl 4'-ethoxalyloxy-5,7-dihydroxy-2-isoflavonecarboxylate] | 2.26 | > 100 | Antibody-formation inhibition rate ([2]; 1 mg/Kg for each administration): 14.4%; Antibody-formation inhibition rate [2, 4]: 28.7%; Antibody-formation inhibition rate [2, 5]: 40.0%; Antibody-formation inhibition rate ([2]; 50 mg/Kg for each administration): 75.8%
COc1ccc(-c2c(CN(C)C)oc3cc(O)cc(O)c3c2=O)cc1 [Example 2, 2-(dimethylaminomethyl)-5,7-dihydroxy-4'-methoxyisoflavone hydrochloride] | > 293 | 18 | 
COc1ccc(-c2c(CNC3CCCCC3)oc3cc(O)cc(O)c3c2=O)cc1 [Example 3, 2-(Cyclohexylaminomethyl)-5,7-dihydroxy-4'-methoxyisoflavone hydrochloride] | > 253 | 16 | 
COc1ccc(-c2c(CNCCO)oc3cc(O)cc(O)c3c2=O)cc1.Cl [Example 4, 5,7-Dihydroxy-2-[(2-hydroxyethylamino)methyl]-4'-methoxyisoflavone hydrochloride] | > 254 | > 100 | 
O=c1c(-c2ccc(O)cc2)c(CN2CCCCC2)oc2cc(O)cc(O)c12 [Example 5, 4',5,7-trihydroxy-2-piperidinomethylisoflavone] |  | 9.5 (≈ 25.9 µM) | 
O=c1c(-c2ccc(O)cc2)c(CNC2=NCCS2)oc2cc(O)cc(O)c12 [Example 6, 4',5,7-Trihydroxy-2-[(2-thiazolin-2-ylamino)methyl]isoflavone] | 39 | > 100 | 
NC(=O)c1oc2cc(O)cc(O)c2c(=O)c1-c1ccc(O)cc1 [Example 7, 4',5,7-trihydroxy-2-isoflavonecarboxamide] |  | > 100 | 
CNC(=O)c1oc2cc(O)cc(O)c2c(=O)c1-c1ccc(O)cc1 [Example 8, 4',5,7-trihydroxy-N-methyl-2-isoflavonecarboxamide] | 45.8 | > 100 | 
O=C(NCCO)c1oc2cc(O)cc(O)c2c(=O)c1-c1ccc(O)cc1 [Example 9, 4',5,7-trihydroxy-N-(2-hydroxyethyl)-2-isoflavonecarboxamide] | 42 | > 100 | 
CSCc1oc2cc(O)cc(O)c2c(=O)c1-c1ccc(O)cc1 [Example 10, 4',5,7-trihydroxy-2-(methylthiomethyl)isoflavone] |  | 20 (≈ 60.5 µM) | 
O=c1c(-c2ccc(O)cc2)c(CSC2=NCCS2)oc2cc(O)cc(O)c12 [Example 11] |  | 20 (≈ 49.8 µM) | 
CCOC(=O)CSCc1oc2cc(O)cc(O)c2c(=O)c1-c1ccc(O)cc1 [Example 12, Ethyl [[(4',5,7-trihydroxy-2-isoflavonyl)methyl]thio]acetate] |  | > 100 | Antibody-formation inhibition rate [2, 4]: 25.3%; Antibody-formation inhibition rate [2, 5]: 50.0%
O=c1c(-c2ccc(O)cc2)c(CSCC(O)CO)oc2cc(O)cc(O)c12 (stereo not drawn) [Example 13, 2-[[(2,3-Dihydroxypropyl)thio]methyl]-4', 5,7-trihydroxyisoflavone] | 10.2 | > 100 | Antibody-formation inhibition rate [2, 4]: 27.0%; Antibody-formation inhibition rate [2, 5]: 76.6%
O=C(O)CCSCc1oc2cc(O)cc(O)c2c(=O)c1-c1ccc(O)cc1 [Example 14] | 25.7 | 90 (≈ 232 µM) | 
COC(=O)c1oc2cc(O)cc(O)c2c(=O)c1-c1ccc(O)cc1 [Example 15] |  | 60 (≈ 183 µM) | 
CC(C)OC(=O)c1oc2cc(O)cc(O)c2c(=O)c1-c1ccc(O)cc1 [Example 16, isopropyl 4',5,7-trihydroxy-2-isoflavonecarboxylate] |  | 25 (≈ 70.2 µM) | 
COCCOC(=O)c1oc2cc(O)cc(O)c2c(=O)c1-c1ccc(O)cc1 [Example 17, Methoxyethyl 4',5,7-trihydroxy-2-isoflavonecarboxylate] | 16.1 | 60 (≈ 161 µM) | 
O=c1c(-c2ccc(O)cc2)coc2cc(O)cc(O)c12 [genistein, 5,7,4'-trihydroxyisoflavone] |  |  | estrogenic action [3]: weak estrogenic action
